Read-outs that look alike come from different tables or passages of the source.
Columns and labels:
[1] = Toxicokinetics, 14-day intranasal study in dogs (Study 62959); format: in vivo; conditions: both sexes, Beagle, dog, plasma, inhaled or intranasal, dogs, 14-day intranasal study
Procedure: Assessments of mortality, clinical signs, olfactory reflex, body weights, food consumption, ophthalmology, and electrocardiograms were performed. In addition, clinical pathology assessments (hematology, coagulation, clinical chemistry and urinalysis) were evaluated once pretreatment and at termination. Blood samples were collected from the jugular vein of all animals on Days 1 and 14, at up to 8 time points relative to treatment, for analysis of test item concentration in plasma and the subsequent calculation of toxicokinetic parameters. Following dosing, the Main animals were euthanized and subjected to a complete necropsy examination on Day 15. […] All Main and Recovery study animals underwent complete necropsy examinations, selected tissues/organs were retained, and microscopic evaluations of a standard set of tissues were performed.
For toxicokinetics, a series of 8 blood samples were collected from the jugular vein from all treated animals on each of Days 1 and 14 of the treatment period at 2, 5, 10, 15, 30, and 60 minutes as well as 3 and 8 hours after treatment.

[2] = Toxicokinetics, 14-day intranasal study in rats (Study 700041); format: in vivo; conditions: Sprague Dawley, rat, plasma, inhaled or intranasal; for AUC(0-t): read-out: AUC0-Tlast [SE]; for AUC(0-inf): read-out: AUCINF_obs
Procedure: The animals were monitored for mortality, clinical signs, respiratory measurements, body weights, food consumption, and body temperature. Ophthalmoscopic examinations and respiratory function tests were performed on all animals at scheduled timepoints. Clinical pathology assessments (hematology, coagulation, clinical chemistry, and urinalysis) were evaluated at termination. […] Following dosing, the Main animals were euthanized and subjected to a complete necropsy examination on Day 15. […] TK animals were euthanized after the last blood collection and discarded without further examination. At terminal euthanasia, selected tissues/organs were weighed, and microscopic evaluations of a standard set of tissues including the nasal turbinates (4 sections) and brain (7 sections) were performed for all Main and Recovery study animals.
Following dosing, animals in the Main group were euthanized and subjected to a necropsy examination on Day 15.

Sprague-Dawley rats = assay: Maximum tolerated dose followed by 7-day repeat-dose toxicology in rats (Study 700040); format: in vivo, rat
Procedure: (§1) The study consisted of 2 parts. […] The doses used in part 1 were 15, 30, 50, 65, and 75 mg/kg. Each subsequent dose was administered following at least 24 hours from the commencement of the previous dose. There were 2 males and 2 females in each dose group.
(§2) During Phase I, assessments of mortality, clinical signs and body weights were performed. […] The necropsy consisted of an external examination, including reference to all clinically-recorded lesions, as well as a detailed internal examination.
(§3) During Phase 2, assessments of mortality, clinical signs and body weights were performed. Following dosing, all animals were euthanized and subjected to a necropsy examination on Day 8. The necropsy consisted of an external examination, including reference to all clinically-recorded lesions, as well as a detailed internal examination. Study plan specific tissues/organs were collected and retained, then trimmed and preserved promptly once the animal was euthanized but these were not further examined microscopically.

[3] = as above; format: in vivo, rat; conditions: both sexes, Sprague-Dawley, rat, in vivo, inhaled or intranasal; single intranasal administration
Procedure: as §1, §2, §3

[4] = female, 5 mg/kg/day, Day 1, Female
[5] = female, 5 mg/kg/day, Day 14, Female
[6] = female, 20 mg/kg/day, Day 1, Female
[7] = female, 75 mg/kg/day, Day 1, Female
[8] = female, 75 mg/kg/day, Day 14, Female
[9] = male, 5 mg/kg/day, Day 14, Male
[10] = male, 20 mg/kg/day, Day 1, Male
[11] = male, 20 mg/kg/day, Day 14, Male
[12] = male, 75 mg/kg/day, Day 1, Male
[13] = male, 75 mg/kg/day, Day 14, Male

`COc1ccc2[nH]cc(CCN(C)C)c2c1` [5MeODMT, 5-methoxy-N,N-dimethyltryptamine] showed a Tmax [1] of 3 to 14 min, a half-life ([1]; read-out: apparent elimination half-lives) of 19 to 95 min and a Tmax ([2]; both sexes, 75 mg/kg, rats, 14-day intranasal study, 5, 20, 75 mg/kg) of 2 to 5 min. For the same molecule, the half-life ([2]; both sexes, 75 mg/kg, rats, 14-day intranasal study, 5, 20, 75 mg/kg, read-out: apparent t1/2) was 6.8 to 9.4 min, the Cmax [2, 4] was 186 ng/mL and the Tmax [2, 4] was 9.96 min. It also gave an AUC(0-t) [2, 4] of 53.2 ng·h/mL, an AUC(0-inf) [2, 4] of 53.7 ng·h/mL and a Cmax [2, 5] of 645 ng/mL. For the same molecule, the AUC(0-t) [2, 5] was 63.8 ng·h/mL, the AUC(0-inf) [2, 5] was 64 ng·h/mL and the half-life ([2]; female, 5 mg/kg/day, Day 14, Female, read-out: t1/2 (converted)) was 6.78 min. The Cmax [2, 6] was 679 ng/mL, the AUC(0-t) [2, 6] was 198 ng·h/mL and the AUC(0-inf) [2, 6] was 198 ng·h/mL. For the same molecule, the Cmax ([2]; female, 20 mg/kg/day, Day 14, Female) was 795 ng/mL, the Cmax [2, 7] was 1310 ng/mL and the AUC(0-t) [2, 7] was 228 ng·h/mL. It also gave an AUC(0-inf) [2, 7] of 228 ng·h/mL, a half-life ([2]; female, 75 mg/kg/day, Day 1, Female, read-out: t1/2 (converted)) of 9.36 min and a Cmax [2, 8] of 870 ng/mL. It also gave an AUC(0-t) [2, 8] of 155 ng·h/mL, a half-life ([2]; female, 75 mg/kg/day, Day 14, Female, read-out: t1/2 (converted)) of 7.8 min and a Cmax ([2]; male, 5 mg/kg/day, Day 1, Male) of 191 ng/mL. The AUC(0-t) ([2]; male, 5 mg/kg/day, Day 1, Male) was 39.9 ng·h/mL, the AUC(0-inf) ([2]; male, 5 mg/kg/day, Day 1, Male) was 40.1 ng·h/mL and the Cmax [2, 9] was 627 ng/mL. It also gave an AUC(0-t) [2, 9] of 114 ng·h/mL, an AUC(0-inf) [2, 9] of 115 ng·h/mL and a Cmax [2, 10] of 4190 ng/mL. For the same molecule, the AUC(0-t) [2, 10] was 420 ng·h/mL, the AUC(0-inf) [2, 10] was 421 ng·h/mL and the half-life ([2]; male, 20 mg/kg/day, Day 1, Male, read-out: t1/2 (converted)) was 7.5 min. The Cmax [2, 11] was 1200 ng/mL, the AUC(0-t) [2, 11] was 133 ng·h/mL and the AUC(0-inf) [2, 11] was 133 ng·h/mL. For the same molecule, the half-life ([2]; male, 20 mg/kg/day, Day 14, Male, read-out: t1/2 (converted)) was 8.58 min, the Cmax [2, 12] was 7010 ng/mL and the AUC(0-t) [2, 12] was 1030 ng·h/mL. It also gave an AUC(0-inf) [2, 12] of 1040 ng·h/mL, a Cmax [2, 13] of 3290 ng/mL and an AUC(0-t) [2, 13] of 391 ng·h/mL. The AUC(0-inf) [2, 13] was 392 ng·h/mL, the half-life ([2]; male, 75 mg/kg/day, Day 14, Male, read-out: t1/2 (converted)) was 6.96 min and the Body weight gain (Sprague-Dawley rats; 75 mg/kg for 7 consecutive days) was “slightly suppressed for both sexes”. The “Tolerability, 7 consecutive days” value (Sprague-Dawley rats; 75 mg/kg once daily intranasal) was “tolerated”, the “Tolerability, single intranasal administration” value (Sprague-Dawley rats; dose levels up to 75 mg/kg) was “tolerated” and the “Mortality and gross pathology” value (Sprague-Dawley rats; single dose 15, 30, 50, 65, 75 mg/kg) was “no mortality and gross pathology findings at any dose”. For the same molecule, the MTD at 14 days [3] was 75 mg/kg.
